Test results taken from ChEMBL document CHEMBL4257539, “Identification of potent catalytic inhibitors of human DNA topoisomerase II by structure-based virtual screening” (Medchemcomm, 2018).
Calls of active or inactive are those of the source. The calls are words filed in the database; no cut-off is given here.

Key:
Homo sapiens [1] = species: Homo sapiens; test: Inhibition of human topoisomerase-2 assessed as reduction in relaxation of supercoiled pBR322 DNA at 100 uM after 30 mins by ethidium bromide staining based agarose gel electrophoresis method
ZR-75-30 = test: Antiproliferative activity against human ZR-7530 cells after 72 hrs by MTT assay; type: functional, cell-based
A549 [2] = test: cells; conditions: Homo sapiens, A549, 72 h
Description: (§1) Antiproliferative activity against human A549 cells after 72 hrs by MTT assay

HCT-116 [3] = test: cells; conditions: Homo sapiens, HCT-116, 72 h
Description: (§2) Antiproliferative activity against human HCT116 cells after 72 hrs by MTT assay

A549 [4] = system: A549
Description: as §1

HCT-116 [5] = system: HCT-116
Description: as §2

Homo sapiens [6] = species: Homo sapiens; test: Inhibition of human topoisomerase-2 assessed as reduction in relaxation of supercoiled pBR322 DNA at 50 uM after 30 mins by ethidium bromide staining based agarose gel electrophoresis method
[7] = Inhibition of human topoisomerase-2 assessed as reduction in relaxation of supercoiled pBR322 DNA after 30 mins by ethidium bromide staining based agarose gel electrophoresis method
[8] = Homo sapiens, ZR-75-30, 72 h, read-out: IC50

Compound | inhibition (Homo sapiens [1]) | IC50 (ZR-75-30; [8]) [µM] | IC50 (A549 [2]) [µM] | IC50 (HCT-116 [3]) [µM] | IC50 (A549 [4]) | IC50 (ZR-75-30; zr-75-30) | IC50 (HCT-116 [5]) | inhibition (Homo sapiens [6]) | IC50 [7] [µM]
COc1ccc(-c2cc(-c3ccccc3)c(C#N)c(SCC(=O)O)n2)cc1 | Active | 14 | 37 | 10 |  |  |  |  | 
C=CCn1c(CN2c3ccccc3Sc3ccccc32)nnc1SCC(=O)O |  | 15 |  | 32 | Not Active |  |  |  | 
COc1ccc(C(=O)Cn2c(=N)n(Cc3ccc(C)cc3)c3ccccc32)cc1 | Active | 1.2 | 1.2 | 1 |  |  |  |  | 
NS(=O)(=O)c1ccc(NC(=O)CSc2nnc3ccc4ccccc4n23)cc1 |  |  |  |  | Not Active | Not Active | Not Active |  | 
O=C(O)CCc1nn2c3ccccc3n(Cc3ccccc3)c2nc1=O | Active |  |  |  | Not Active | Not Active | Not Active |  | 
O=C(O)COc1ccc(/C=N/n2c(COc3ccccc3)nc3ccccc3c2=O)cc1 | Active | 58 |  | 54 | Not Active |  |  |  | 
COc1cc([C@@H]2c3cc4c(cc3[C@@H](O[C@@H]3O[C@@H]5CO[C@@H](C)O[C@H]5[C@H](O)[C@H]3O)[C@H]3COC(=O)[C@H]23)OCO4)cc(OC)c1O [ETOPOSIDE] | Active | 1.5 | 68 | 1.1 |  |  |  | inactive | 184
CC(C)(O)C#Cc1cc(C(=O)NCCc2ccc(S(N)(=O)=O)cc2)c2oc(C(C)(C)O)cc2c1 | Active | 62 |  |  | Not Active |  | Not Active |  | 349
Cc1cc(C(=O)O)ccc1-c1ccc(/C=c2/sc3nc4ccccc4n3c2=O)o1 | Active |  |  |  | Not Active | Not Active | Not Active |  | 41
O=C(O)CCSc1nnc(-c2cccnc2)n1CCc1ccccc1 |  |  |  |  | Not Active | Not Active | Not Active |  | 
O=C(O)c1ccc2c(c1)C(=O)N(c1ccc(C(=O)OCC(=O)c3ccccc3)cc1)C2=O | Active |  |  |  | Not Active | Not Active | Not Active |  | 
N#Cc1c(-c2ccc(F)cc2)cc(-c2ccccc2)nc1SCC(=O)NCC(=O)O | Active |  |  |  | Not Active | Not Active | Not Active |  | 
